1 compound from ChEMBL document CHEMBL1240366, “Blockade of X4-tropic HIV-1 cellular entry by GSK812397, a potent noncompetitive CXCR4 receptor antagonist” (Antimicrob Agents Chemother, 2010) can be followed below.

Broadly, the bioavailability is dose-corrected exposure relative to a reference, in per cent. A low value points to little systemic uptake. The half-life is the time in which the quantity being followed falls by half. A high value points to slow decline.

Data set [1] in a line: Oral bioavailability in rat. Type of data set: ADME, organism-based. The note with it: in vivo.
The nature of data set [2]: Half life in iv dosed rat. The settings on record: in vivo. It is filed as ADME, organism-based.

Turning to `CCCN(CCC)CCCCN(C)Cc1ccc(CN(Cc2ncc[nH]2)Cc2nccn2C)cc1`, the bioavailability in data set [1] was determined as 21%. This compound gave a half-life in data set [2] of 99 h.
